Patent US9029325B2, “Amylin analogues and pharmaceutical compositions thereof” (Novo Nordisk A/S, priority 2011, dated 2015)
Starred links: 1 amine or outer side, 2 acyl side, 3 side chain; linkers in the order of their positions; H or OH if unused. Positions of bridges follow the written chain, without caps; N, C: chain ends. Residues, ends and D or L forms follow the SMILES beside them. *: point of attachment. C20 diacid = O=C(O)CCCCCCCCCCCCCCCCCCC(=O)*; γGlu = O=C(O)[C@H](CCC(=O)[*:2])N[*:1]

Assay: Assay (I) efficacy testing on appetite (food intake), ad libitum fed rat model
Type: in vivo, Sprague Dawley (SD) rats
Method in brief: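 Ad libitum fed SD rats (200-250 g) on a reversed light cycle, housed individually, received a single 0.01-3 mg/kg dose ip, po or sc just before lights-off. Individual food intake recorded hourly for 7 h, then at 24 h and sometimes 48 h, versus vehicle; Grubbs outliers excluded.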

With `CC[C@H](C)[C@H](NC(=O)[C@@H]1CCCN1C(=O)CNC(=O)[C@H](Cc1ccccc1)NC(=O)[C@H](CO)NC(=O)[C@H](CO)NC(=O)[C@H](CO)NC(=O)[C@H](CO)NC(=O)[C@H](CCCNC(=N)N)NC(=O)[C@H](Cc1c[nH]cn1)NC(=O)[C@H](CC(C)C)NC(=O)[C@H](Cc1ccccc1)NC(=O)[C@H](CCC(=O)O)NC(=O)[C@H](C)NC(=O)[C@H](CC(C)C)NC(=O)[C@H](CCCNC(=N)N)NC(=O)[C@H](CCC(N)=O)NC(=O)[C@@H](NC(=O)[C@H](C)NC(=O)[C@@H]1CSSC[C@H](NC(=O)[C@H](Cc2c[nH]cn2)NC(=O)CC[C@H](NC(=O)CCCCCCCCCCCCCCCCCCC(=O)O)C(=O)O)C(=O)N[C@@H](CC(N)=O)C(=O)N[C@@H]([C@@H](C)O)C(=O)N[C@@H](C)C(=O)N[C@@H]([C@@H](C)O)C(=O)N1)[C@@H](C)O)C(=O)N[C@@H](CC(C)C)C(=O)N1CCC[C@H]1C(=O)N1CCC[C@H]1C(=O)N[C@H](C(=O)N[C@@H](CC(=O)O)C(=O)N[C@H](C(=O)NCC(=O)N[C@@H](CO)C(=O)N[C@@H](CC(=O)O)C(=O)N[C@H](C(=O)N[C@@H](Cc1ccc(O)cc1)C(N)=O)[C@@H](C)O)C(C)C)[C@@H](C)O` [compound 9] ({C20 diacid-γGlu}-HCNTATCATQRLAEFLHRSSSSFGPILPPTDVGSDTY-NH2; disulfide 2-7 (inferred); C-terminus assumed) the “Food intake reduction 0-24 h 3 nmol/kg (%)” value (0-24 h) was 39% and the “Food intake reduction 24-48 h 3 nmol/kg (%)” value (24-48 h) was 32%.

In the case of `CC[C@H](C)[C@H](NC(=O)[C@@H]1CCCN1C(=O)CNC(=O)[C@H](Cc1ccccc1)NC(=O)[C@H](CC(N)=O)NC(=O)[C@H](CC(N)=O)NC(=O)[C@H](CO)NC(=O)[C@H](CO)NC(=O)[C@H](Cc1c[nH]cn1)NC(=O)[C@H](CCCNC(=N)N)NC(=O)[C@H](CC(C)C)NC(=O)[C@H](Cc1ccccc1)NC(=O)[C@H](CCC(=O)O)NC(=O)[C@H](C)NC(=O)[C@H](CC(C)C)NC(=O)[C@H](CCCNC(=N)N)NC(=O)[C@H](CCC(N)=O)NC(=O)[C@@H](NC(=O)[C@H](C)NC(=O)[C@@H]1CSSC[C@H](NC(=O)[C@H](Cc2c[nH]cn2)NC(=O)[C@H](Cc2c[nH]cn2)NC(=O)[C@H](Cc2c[nH]cn2)NC(=O)CC[C@H](NC(=O)CCCCCCCCCCCCCCCCCCC(=O)O)C(=O)O)C(=O)N[C@@H](CC(N)=O)C(=O)N[C@@H]([C@@H](C)O)C(=O)N[C@@H](C)C(=O)N[C@@H]([C@@H](C)O)C(=O)N1)[C@@H](C)O)C(=O)N[C@@H](CC(C)C)C(=O)N1CCC[C@H]1C(=O)N1CCC[C@H]1C(=O)N[C@H](C(=O)N[C@@H](CC(N)=O)C(=O)N[C@H](C(=O)NCC(=O)N[C@@H](CO)C(=O)N[C@@H](CC(N)=O)C(=O)N[C@H](C(=O)N[C@@H](Cc1ccc(O)cc1)C(N)=O)[C@@H](C)O)C(C)C)[C@@H](C)O` [compound 12] ({C20 diacid-γGlu}-HHHCNTATCATQRLAEFLRHSSNNFGPILPPTNVGSNTY-NH2; disulfide 4-9), the “Food intake reduction 0-24 h 30 nmol/kg (%)” value (30 nmol/kg, 0-24 h) is reported as 70% and the “Food intake reduction 24-48 h 30 nmol/kg (%)” value (30 nmol/kg, 24-48 h) is reported as 45%.

For `CC[C@H](C)[C@H](NC(=O)[C@@H]1CCCN1C(=O)CNC(=O)[C@H](Cc1ccccc1)NC(=O)[C@H](CC(N)=O)NC(=O)[C@H](CC(N)=O)NC(=O)[C@H](CO)NC(=O)[C@H](CO)NC(=O)[C@H](CCCNC(=N)N)NC(=O)[C@@H](NC(=O)[C@H](CC(C)C)NC(=O)[C@H](Cc1ccccc1)NC(=O)[C@H](CCC(=O)O)NC(=O)[C@H](C)NC(=O)[C@H](CC(C)C)NC(=O)[C@H](CCCNC(=N)N)NC(=O)[C@H](CCC(N)=O)NC(=O)[C@@H](NC(=O)[C@H](C)NC(=O)[C@@H]1CSSC[C@H](NC(=O)[C@H](Cc2c[nH]cn2)NC(=O)CC[C@H](NC(=O)CCCCCCCCCCCCCCCCCCC(=O)O)C(=O)O)C(=O)N[C@@H](CC(N)=O)C(=O)N[C@@H]([C@@H](C)O)C(=O)N[C@@H](C)C(=O)N[C@@H]([C@@H](C)O)C(=O)N1)[C@@H](C)O)C(C)C)C(=O)N[C@@H](CC(C)C)C(=O)N1CCC[C@H]1C(=O)N1CCC[C@H]1C(=O)N[C@H](C(=O)N[C@@H](CC(N)=O)C(=O)N[C@H](C(=O)NCC(=O)N[C@@H](CO)C(=O)N[C@@H](CC(N)=O)C(=O)N[C@H](C(=O)N[C@@H](Cc1ccc(O)cc1)C(N)=O)[C@@H](C)O)C(C)C)[C@@H](C)O` [compound 15] ({C20 diacid-γGlu}-HCNTATCATQRLAEFLVRSSNNFGPILPPTNVGSNTY-NH2; disulfide 2-7 (inferred); C-terminus assumed), the “Food intake reduction 0-24 h 3 nmol/kg (%)” value (0-24 h) was 56% and the “Food intake reduction 24-48 h 3 nmol/kg (%)” value (24-48 h) was 59%.

For `CC[C@H](C)[C@H](NC(=O)[C@@H]1CCCN1C(=O)CNC(=O)[C@H](Cc1ccccc1)NC(=O)[C@H](CC(N)=O)NC(=O)[C@H](CC(N)=O)NC(=O)[C@H](CO)NC(=O)[C@H](CO)NC(=O)[C@H](Cc1c[nH]cn1)NC(=O)[C@H](Cc1c[nH]cn1)NC(=O)[C@H](CC(C)C)NC(=O)[C@H](Cc1ccccc1)NC(=O)[C@H](CCC(=O)O)NC(=O)[C@H](C)NC(=O)[C@H](CC(C)C)NC(=O)[C@H](CCCNC(=N)N)NC(=O)[C@H](CCC(N)=O)NC(=O)[C@@H](NC(=O)[C@H](C)NC(=O)[C@@H]1CSSC[C@H](NC(=O)[C@H](Cc2c[nH]cn2)NC(=O)[C@H](Cc2c[nH]cn2)NC(=O)CC[C@H](NC(=O)CCCCCCCCCCCCCCCCCCC(=O)O)C(=O)O)C(=O)N[C@@H](CC(N)=O)C(=O)N[C@@H]([C@@H](C)O)C(=O)N[C@@H](C)C(=O)N[C@@H]([C@@H](C)O)C(=O)N1)[C@@H](C)O)C(=O)N[C@@H](CC(C)C)C(=O)N1CCC[C@H]1C(=O)N1CCC[C@H]1C(=O)N[C@H](C(=O)N[C@@H](CC(N)=O)C(=O)N[C@H](C(=O)NCC(=O)N[C@@H](CO)C(=O)N[C@@H](CC(N)=O)C(=O)N[C@H](C(=O)N[C@@H](Cc1ccc(O)cc1)C(N)=O)[C@@H](C)O)C(C)C)[C@@H](C)O` [compound 17] ({C20 diacid-γGlu}-HHCNTATCATQRLAEFLHHSSNNFGPILPPTNVGSNTY-NH2; disulfide 3-8 (inferred); C-terminus assumed), the “Food intake reduction 0-24 h 3 nmol/kg (%)” value (0-24 h) was 40% and the “Food intake reduction 24-48 h 3 nmol/kg (%)” value (24-48 h) was 22%.

For `CC[C@H](C)[C@H](NC(=O)[C@@H]1CCCN1C(=O)CNC(=O)[C@H](Cc1ccccc1)NC(=O)[C@H](CC(N)=O)NC(=O)[C@H](CC(N)=O)NC(=O)[C@H](CO)NC(=O)[C@H](CO)NC(=O)[C@H](Cc1c[nH]cn1)NC(=O)[C@H](Cc1c[nH]cn1)NC(=O)[C@H](CC(C)C)NC(=O)[C@H](Cc1ccccc1)NC(=O)[C@H](CCC(=O)O)NC(=O)[C@H](C)NC(=O)[C@H](CC(C)C)NC(=O)[C@H](CCCNC(=N)N)NC(=O)[C@H](CCC(N)=O)NC(=O)[C@@H](NC(=O)[C@H](C)NC(=O)[C@@H]1CSSC[C@H](NC(=O)[C@H](Cc2c[nH]cn2)NC(=O)CC[C@H](NC(=O)CCCCCCCCCCCCCCCCCCC(=O)O)C(=O)O)C(=O)N[C@@H](CC(N)=O)C(=O)N[C@@H]([C@@H](C)O)C(=O)N[C@@H](C)C(=O)N[C@@H]([C@@H](C)O)C(=O)N1)[C@@H](C)O)C(=O)N[C@@H](CC(C)C)C(=O)N1CCC[C@H]1C(=O)N1CCC[C@H]1C(=O)N[C@H](C(=O)N[C@@H](CC(N)=O)C(=O)N[C@H](C(=O)NCC(=O)N[C@@H](CO)C(=O)N[C@@H](CC(N)=O)C(=O)N[C@H](C(=O)N[C@@H](Cc1ccc(O)cc1)C(N)=O)[C@@H](C)O)C(C)C)[C@@H](C)O` [compound 18] ({C20 diacid-γGlu}-HCNTATCATQRLAEFLHHSSNNFGPILPPTNVGSNTY-NH2; disulfide 2-7), the “Food intake reduction 0-24 h 3 nmol/kg (%)” value (0-24 h) was 40% and the “Food intake reduction 24-48 h 3 nmol/kg (%)” value (24-48 h) was 32%.

For `CC[C@H](C)[C@H](NC(=O)[C@@H]1CCCN1C(=O)CNC(=O)[C@H](Cc1ccccc1)NC(=O)[C@H](CC(N)=O)NC(=O)[C@H](CC(N)=O)NC(=O)[C@H](CO)NC(=O)[C@H](CO)NC(=O)[C@H](Cc1c[nH]cn1)NC(=O)[C@H](Cc1c[nH]cn1)NC(=O)[C@H](CC(C)C)NC(=O)[C@H](Cc1ccccc1)NC(=O)[C@H](CCC(=O)O)NC(=O)[C@H](C)NC(=O)[C@H](CC(C)C)NC(=O)[C@H](CCCNC(=N)N)NC(=O)[C@H](CCC(N)=O)NC(=O)[C@@H](NC(=O)[C@H](C)NC(=O)[C@@H]1CSSC[C@H](NC(=O)[C@H](Cc2c[nH]cn2)NC(=O)[C@H](Cc2c[nH]cn2)NC(=O)[C@H](Cc2c[nH]cn2)NC(=O)CC[C@H](NC(=O)CCCCCCCCCCCCCCCCCCC(=O)O)C(=O)O)C(=O)N[C@@H](CCCNC(=N)N)C(=O)N[C@@H]([C@@H](C)O)C(=O)N[C@@H](C)C(=O)N[C@@H]([C@@H](C)O)C(=O)N1)[C@@H](C)O)C(=O)N[C@@H](CC(C)C)C(=O)N1CCC[C@H]1C(=O)N1CCC[C@H]1C(=O)N[C@H](C(=O)N[C@@H](CC(N)=O)C(=O)N[C@H](C(=O)NCC(=O)N[C@@H](CO)C(=O)N[C@@H](CC(N)=O)C(=O)N[C@H](C(=O)N[C@@H](Cc1ccc(O)cc1)C(N)=O)[C@@H](C)O)C(C)C)[C@@H](C)O` [compound 22] ({C20 diacid-γGlu}-HHHCRTATCATQRLAEFLHHSSNNFGPILPPTNVGSNTY-NH2; disulfide 4-9 (inferred); C-terminus assumed), the “Food intake reduction 0-24 h 3 nmol/kg (%)” value (0-24 h) was 26% and the “Food intake reduction 24-48 h 3 nmol/kg (%)” value (24-48 h) was 5%.
